Test results from patent publication US20250230193A1, “CYCLIC COMPOUND HAVING SELECTIVE KRAS INHIBITORY EFFECT ON HRAS AND NRAS” (CHUGAI SEIYAKU KABUSHIKI KAISHA, priority 2022, published 2025).
*1 amine or outer side, *2 acyl side, *3 side chain or, on linkers, in order; H or OH if unused. Where a SMILES comes first, the peptide text is derived from it. Bridges are numbered along the chain shown (N, C = ends). [ ]: non-standard residue; d: D form. The star is where a group is joined. hPhe(3,5-F2-4-CF3) = N[C@@H](CCc1cc(F)c(C(F)(F)F)c(F)c1)C(=O)O; hPhe(3-Cl-4-CF3) = N[C@@H](CCc1ccc(C(F)(F)F)c(Cl)c1)C(=O)O; NPrPhe(4-CF3) = CCCN[C@@H](Cc1ccc(C(F)(F)F)cc1)C(=O)O; X16 = O=C([C@@H](N[*:1])C1CC(F)(F)C1)[*:2]; NMeGly(cPent) = CN[C@H](C(=O)O)C1CCCC1; Hyp = O=C(O)[C@@H]1C[C@@H](O)CN1; NMeD = CN[C@@H](CC(=O)O)C(=O)O; NMeL = CN[C@@H](CC(C)C)C(=O)O; Morpholide = C1CN(*)CCO1; Ac5c = NC1(C(=O)O)CCCC1; Aze = O=C(O)[C@@H]1CCN1; Sar = CNCC(=O)O

Key:
[1] = target: GDP-bound NRAS wild-type protein (Homo sapiens, UniProt P01111); assay: Binding to NRAS by surface plasmon resonance (SPR), Single Cycle Kinetics; details: SPR
[2] = target: GDP-bound HRAS wild-type protein (Homo sapiens, UniProt P01112); assay: Binding to HRAS by surface plasmon resonance (SPR), Single Cycle Kinetics; details: SPR
[3] = KD ratio, GDP-bound NRAS wild-type vs GDP-bound KRAS wild-type
[4] = KD ratio, GDP-bound HRAS wild-type vs GDP-bound KRAS wild-type

Chain of GDP-bound NRAS wild-type protein (P01111 whole entry): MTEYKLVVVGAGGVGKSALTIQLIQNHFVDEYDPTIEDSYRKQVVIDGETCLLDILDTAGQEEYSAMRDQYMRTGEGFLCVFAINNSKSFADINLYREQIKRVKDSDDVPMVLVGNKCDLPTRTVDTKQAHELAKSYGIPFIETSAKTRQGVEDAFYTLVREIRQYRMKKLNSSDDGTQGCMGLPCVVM
Chain of GDP-bound HRAS wild-type protein (P01112 whole entry): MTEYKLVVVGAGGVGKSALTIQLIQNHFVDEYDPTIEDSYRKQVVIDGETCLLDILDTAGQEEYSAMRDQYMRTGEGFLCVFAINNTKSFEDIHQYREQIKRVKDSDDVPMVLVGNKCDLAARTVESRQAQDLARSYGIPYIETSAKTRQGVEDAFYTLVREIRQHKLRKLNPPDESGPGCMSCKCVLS

SMILES	NRAS/KRAS (ratio of KD value with respect to GDP-bound NRAS wild-type protein to KD value with respect to KRAS) [1]	HRAS/KRAS (ratio of KD value with respect to GDP-bound HRAS wild-type protein to KD value with respect to KRAS) [2]	other results
CC[C@H](C)[C@@H]1NC(=O)[C@@H]2CCCCc3ccc(cc3)C[C@@H](C(=O)N(C)CC(=O)N[C@@H](CCc3ccc(C(F)(F)F)c(OC)c3)C(=O)N3CC4(CC4)C[C@H]3C(=O)NC3(CC(C)(C)C3)C(=O)N(C)[C@@H](C3CCCC3)C(=O)N(C)[C@H](C(=O)N(C)CC)CC(=O)N2C)N2CC/C=C\C[C@@H](C2=O)N(C)C(=O)CN(C)C1=O [PP3081]	–	–	NRAS/KRAS (ratio of KD value with respect to GDP-bound NRAS wild-type protein to KD value with respect to KRAS) ([1]; GDP-bound wild-type proteins): A (a compound having 10 or more and less than 20 is denoted as A); HRAS/KRAS (ratio of KD value with respect to GDP-bound HRAS wild-type protein to KD value with respect to KRAS) ([2]; GDP-bound wild-type proteins): B (a compound having 3 or more and less than 10 is denoted as B)
CC[C@H](C)[C@@H]1NC(=O)[C@H](CC(C)C)N(C)C(=O)C[C@@H](C(=O)N2CCOCC2)N(C)C(=O)[C@H](C2CCCC2)N(C)C(=O)C2(CCC2)NC(=O)[C@@H]2CCCN2C(=O)[C@H](CCc2ccc(C(F)(F)F)c(Cl)c2)NC(=O)CN(C)C(=O)[C@H](Cc2ccc(F)cc2)N2CCCCC[C@@H](C2=O)N(C)C(=O)CN(C)C1=O [PP0967]	–	–	NRAS/KRAS (ratio of KD value with respect to NRAS to KD value with respect to KRAS) [1, 3]: B (a compound having 3 or more and less than 10 is denoted as B); HRAS/KRAS (ratio of KD value with respect to HRAS to KD value with respect to KRAS) [2, 4]: B (a compound having 3 or more and less than 10 is denoted as B)
CCO[C@@H]1C[C@H]2C(=O)NC3(CC(C)(C)C3)C(=O)N(C)[C@@H](C3CCCC3)C(=O)N(C)[C@H](C(=O)N(C)CC)CC(=O)N(C)[C@H]3CCCC/C=C/c4ccc(cc4)C[C@@H](C(=O)N(C)CC(=O)N[C@@H](CCc4ccc(C(F)(F)F)c(OC)c4)C(=O)N2C1)N1CC/C=C\C[C@@H](C1=O)N(C)C(=O)CN(C)C(=O)[C@H]([C@@H](C)CC)NC3=O [PP1830, (1S,7S,11R,13S,19S,22S,26S,29S,35S,37Z,47E)-19-cyclopentyl-11-ethoxy-N-ethyl-7-[2-[3-methoxy-4-(trifluoromethyl)phenyl]ethyl]-N,3,3′,3′,18,21,25,31,34-nonamethyl-29-[(1S)-1-methylpropyl]-2,5,8,14,17,20,24,27,30,33,55-undecaoxo-spiro[3,6,9,15,18,21,25,28,31,34,41-undecazapentacyclo[24.15.11.2^43,46.1^35,41.0^9,13]pentapentaconta-37,43(54),44,46(53),47-pentaene-16,1′-cyclobutane]-22-carboxamide]	–	–	NRAS/KRAS (ratio of KD value for NRAS to KD value for KRAS) [1, 3]: A (a compound having 10 or more and less than 20 is denoted as A); HRAS/KRAS (ratio of KD value for HRAS to KD value for KRAS) [2, 4]: B (a compound having 3 or more and less than 10 is denoted as B)
CCCN1C(=O)CN(C)C(=O)[C@@H]2CCN2C(=O)[C@H](C2CC(F)(F)C2)NC(=O)[C@H](CC(C)C)N(C)C(=O)C[C@@H](C(=O)N2CCOCC2)N(C)C(=O)[C@H](C2CCCC2)N(C)C(=O)C2(CCCC2)NC(=O)[C@@H]2CCCN2C(=O)[C@H](CCc2cc(F)c(C(F)(F)F)c(F)c2)NC(=O)CN(C)C(=O)[C@@H]1Cc1ccc(C(F)(F)F)cc1 [PP0786] ([NMeL][X16][Aze][Sar][NPrPhe(4-CF3)][Sar][hPhe(3,5-F2-4-CF3)]P[Ac5c][NMeGly(cPent)][NMeD]-Morpholide; lactam N-11)	B (a compound having 3 or more and less than 10 is denoted as B)	B (a compound having 3 or more and less than 10 is denoted as B)	–
CCCN1C(=O)CN(C)C(=O)CNC(=O)[C@H]([C@@H](C)CC)NC(=O)[C@H](CC(C)C)N(C)C(=O)C[C@@H](C(=O)N(C)C)N(C)C(=O)[C@H](C2CCCC2)N(C)C(=O)C2(CCCC2)NC(=O)[C@@H]2C[C@@H](OCC)CN2C(=O)[C@H](CCc2ccc(C(F)(F)F)c(Cl)c2)NC(=O)CN(C)C(=O)[C@@H]1Cc1ccc(C(F)(F)F)cc1 [PP0421] ([NMeL]IG[Sar][NPrPhe(4-CF3)][Sar][hPhe(3-Cl-4-CF3)][Hyp](Et)[Ac5c][NMeGly(cPent)][NMeD]-NMe2; lactam N-11)	B (a compound having 3 or more and less than 10 is denoted as B)	C (A compound having a KD ratio of 0.1 or more and less than 3 is denoted as C)	–
CC[C@H](C)[C@@H]1NC(=O)[C@H](CC(C)C)N(C)C(=O)C[C@@H](C(=O)N2CCOCC2)N(C)C(=O)[C@H](C2CCCC2)N(C)C(=O)C2(CCCC2)NC(=O)[C@@H]2[C@@H](O)CCN2C(=O)[C@H](CCc2cc(F)c(C(F)(F)F)c(F)c2)NC(=O)CN(C)C(=O)[C@H](Cc2ccc(C(F)(F)F)cc2)N2CCCCC[C@@H](C2=O)N(C)C(=O)CN(C)C1=O [PP0662]	B (a compound having 3 or more and less than 10 is denoted as B)	B (a compound having 3 or more and less than 10 is denoted as B)	–
